Laboratory results: PMC10215804, “Exploring Alternative Pathways to Target Bacterial Type II Topoisomerases Using NBTI Antibacterials: Beyond Halogen-Bonding Interactions” (Antibiotics, 2023)
Where two headings read alike, the source gives them in different places.

Experiments:
E. coli topoIV = molecular target: T1, E. coli topoIV (Escherichia coli, UniProt P0AFI2); experiment: topoIV relaxation inhibition assay (high-throughput plate assay); type: biochemical
T1 construct: purchased Inspiralis (Norwich, UK)
Method: (§1) To determine the IC50 values of the compounds for S. aureus and E. coli, a DNA gyrase supercoiling high-throughput plate assay and a topoIV relaxation high-throughput plate assay were performed. Assay kits and black streptavidin-coated 96-well microtiter plates are available from Inspiralis (Norwich, UK). For pre-screening, an inhibitor concentration of 100 μM was used. […] A nonlinear regression-based fit of the inhibition curves was used, with the log [inhibitor] versus slope of the reaction variables (four parameters) and a symmetric equation. […] To determine IC50 values, two independent repetitions were performed and the average was calculated.

S. aureus DNA gyrase = molecular target: T2, S. aureus DNA gyrase (Staphylococcus aureus, UniProt P20831); experiment: biochemical; conditions: supercoiling inhibition; mean of two independent measurements ± SD
T2 construct: purchased Inspiralis (Norwich, UK)
Method: as §1

S. aureus topoIV = molecular target: T3, S. aureus topoIV (Staphylococcus aureus, UniProt P0C1U9); experiment: biochemical; conditions: relaxation inhibition; mean of two independent measurements ± SD
T3 construct: purchased Inspiralis (Norwich, UK)
Method: as §1

E. coli (ATCC 25922) = experiment: MIC, broth microdilution; type: cell-based
Method: (§2) For the determination of minimum inhibitory concentrations (MIC), the broth microdilution method was used in 96-well plate format, according to the guidelines of the Clinical and Laboratory Standards Institute and the recommendations of the European Committee on Antimicrobial Susceptibility Testing (EUCAST). The dilutions of the bacterial suspension of the specific bacterial strain, corresponding to the 0.5 McFarland turbidity standard, were prepared with […] Mueller–Hinton broth with TES (Thermo Fisher Scientific) to obtain an end inoculum of 10^5 CFU/mL. The compounds were dissolved in DMSO and mixed with the inoculum. […] The MIC was determined as the lowest concentration of antibiotic that prevented visible bacterial growth. Tetracycline was used as a positive control on each test plate.

E. coli ESBL QA-11.3 = experiment: MIC, broth microdilution; type: cell-based
Method: as §2

E. coli N43 (CGSC# 5583) = experiment: MIC, broth microdilution; type: cell-based; conditions: Escherichia coli
Method: as §2

E. coli D22 = experiment: MIC, broth microdilution; type: cell-based; conditions: Escherichia coli
Method: as §2

A. baumannii = experiment: MIC, broth microdilution; type: cell-based
Method: as §2

K. pneumoniae = experiment: MIC, broth microdilution; type: cell-based
Method: as §2

P. aeruginosa RDK 184 = experiment: MIC, broth microdilution; type: cell-based
Method: as §2

E. faecalis RDK 057 = experiment: MIC, broth microdilution; type: cell-based
Method: as §2

S. aureus (ATCC 29213) = experiment: MIC, broth microdilution; type: cell-based
Method: as §2

[1] = Metabolic activity assessment (cytotoxicity), CellTiter 96 Aqueous One; type: cell-based; conditions: human, 72 h treatment, means of three independent measurements ± SD
Method: HUVEC (ATCC® CRL-1730™) and HepG2 (ATCC® HB-8065™) cell lines were cultured in Dulbecco’s Modified Eagle Medium (DMEM; Sigma-Aldrich, St. Louis, MO, USA) supplemented with 10% heat-deactivated FBS (Gibco, Grand Island, NE, USA), 2 mM L-glutamine, 100 U/mL penicillin, 100 μg/mL streptomycin (all from Sigma-Aldrich, St. Louis, MO, USA) in a humidified chamber at 37 °C and 5% CO2. The experiments were carried out on passages 4–7 for both cell lines. The tested compounds were dissolved in DMSO and further diluted in culture medium to a desired final concentration. The cells were then seeded into 96-well plates at 5 × 10^4 cells/mL (100 μL/well) or 8 × 10^4 cells/mL (100 μL/well) for HUVEC and HepG2, respectively. The cells were then incubated for 24 h to allow attachment onto the wells. The cells were treated with 1 μM and 50 μM of each compound of interest, or the corresponding vehicle as control. […] Their metabolic activity was assessed after 72 h treatment using a CellTiter 96 Aqueous One Solution Cell Proliferation Assay (Promega, Madison, WI, USA), in accordance with the manufacturer’s instructions. The absorbance was measured at 492 nm on an automated microplate reader, Tecan Spark (Tecan Group Ltd., Männedorf, CH, Switzerland). Data are presented as the percentage of metabolic activity of control cells stimulated with vehicle, or as an IC50 value (mean ± SD) from three independent experiments, each conducted in triplicate (for screening) or duplicate (for IC50 determination). IC50 values were calculated using a non-linear regression model and with Graph Pad Prism 9 software.

E. coli DNA gyrase = molecular target: T4, E. coli DNA gyrase (Escherichia coli, UniProt P0AES4); experiment: DNA gyrase supercoiling inhibition assay (high-throughput plate assay); type: biochemical
T4 construct: purchased Inspiralis (Norwich, UK)
Method: as §1

human topoisomerase IIα = molecular target: T5, human topoisomerase IIα (Homo sapiens, UniProt P11388); experiment: human topoisomerase II alpha relaxation high-throughput assay (selectivity); type: biochemical; conditions: residual activity at 100 µM compound; mean ± SD, two independent experiments; read-out: Human TopoIIα (% RA at 100 µM)
T5 construct: purchased Inspiralis (Norwich, UK)
Method: For selectivity determination, a human topoisomerase II alpha relaxation high-throughput assay was used. The assay kits and black streptavidin-coated 96-well microtiter plates are available from Inspiralis (Norwich, UK). Two independent measurements were performed with an inhibitory concentration of 100 µM. Raw data were calculated as the mean ± SD percentage of the residual enzyme activity.

[2] = Escherichia coli, ATCC25922, 20 h, read-out: MIC (μM) E. coli (ATCC 25922)
[3] = Escherichia coli, ATCC25922, read-out: MIC E. coli (ATCC 25922)
[4] = Escherichia coli, ESBLQA11.3, 20 h, read-out: MIC (μM) E. coli ESBL QA:11.3
[5] = Escherichia coli, ESBLQA11.3, read-out: MIC E. coli ESBL QA-11.3
[6] = 20 h, read-out: MIC (μM) E. coli N43
[7] = read-out: MIC E. coli N43 (CGSC# 5583)
[8] = D22, 20 h, read-out: MIC (μM) E. coli D22
[9] = Acinetobacter baumannii, 20 h, read-out: MIC (μM) A. baumannii
[10] = Acinetobacter baumannii, read-out: MIC A. baumannii
[11] = Klebsiella pneumoniae, 20 h, read-out: MIC (μM) K. pneumoniae
[12] = Klebsiella pneumoniae, read-out: MIC K. pneumoniae
[13] = Pseudomonas aeruginosa, RDK184, 20 h, read-out: MIC (μM) P. aeruginosa RDK 184
[14] = Pseudomonas aeruginosa, RDK184, read-out: MIC P. aeruginosa RDK 184
[15] = Enterococcus faecalis, RDK057, read-out: MIC (μM) E. faecalis DRK 057
[16] = Enterococcus faecalis, RDK057, read-out: MIC E. faecalis RDK 057
[17] = Staphylococcus aureus, ATCC29213, 20 h, read-out: MIC (μM) S. aureus (ATCC 29213)
[18] = Staphylococcus aureus, ATCC29213, read-out: MIC S. aureus (ATCC 29213)

T1 sequence (P20083 whole entry): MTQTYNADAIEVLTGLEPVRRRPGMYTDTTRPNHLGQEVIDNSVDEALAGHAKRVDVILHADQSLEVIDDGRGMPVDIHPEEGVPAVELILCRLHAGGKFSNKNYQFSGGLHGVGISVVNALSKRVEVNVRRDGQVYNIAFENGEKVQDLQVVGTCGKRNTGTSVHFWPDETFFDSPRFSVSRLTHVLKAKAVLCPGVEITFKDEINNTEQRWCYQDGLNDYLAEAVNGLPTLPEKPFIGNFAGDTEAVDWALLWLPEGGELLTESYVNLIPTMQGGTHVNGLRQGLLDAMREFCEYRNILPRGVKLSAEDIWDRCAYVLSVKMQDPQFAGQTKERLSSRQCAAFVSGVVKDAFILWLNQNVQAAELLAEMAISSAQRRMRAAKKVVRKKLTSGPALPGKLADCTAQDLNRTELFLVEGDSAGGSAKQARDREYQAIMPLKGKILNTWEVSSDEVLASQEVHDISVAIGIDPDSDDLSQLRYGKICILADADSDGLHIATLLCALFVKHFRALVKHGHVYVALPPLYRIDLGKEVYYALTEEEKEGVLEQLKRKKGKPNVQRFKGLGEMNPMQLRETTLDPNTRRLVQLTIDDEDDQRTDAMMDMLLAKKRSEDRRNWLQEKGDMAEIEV
T1 sequence (P0AFI2 whole entry): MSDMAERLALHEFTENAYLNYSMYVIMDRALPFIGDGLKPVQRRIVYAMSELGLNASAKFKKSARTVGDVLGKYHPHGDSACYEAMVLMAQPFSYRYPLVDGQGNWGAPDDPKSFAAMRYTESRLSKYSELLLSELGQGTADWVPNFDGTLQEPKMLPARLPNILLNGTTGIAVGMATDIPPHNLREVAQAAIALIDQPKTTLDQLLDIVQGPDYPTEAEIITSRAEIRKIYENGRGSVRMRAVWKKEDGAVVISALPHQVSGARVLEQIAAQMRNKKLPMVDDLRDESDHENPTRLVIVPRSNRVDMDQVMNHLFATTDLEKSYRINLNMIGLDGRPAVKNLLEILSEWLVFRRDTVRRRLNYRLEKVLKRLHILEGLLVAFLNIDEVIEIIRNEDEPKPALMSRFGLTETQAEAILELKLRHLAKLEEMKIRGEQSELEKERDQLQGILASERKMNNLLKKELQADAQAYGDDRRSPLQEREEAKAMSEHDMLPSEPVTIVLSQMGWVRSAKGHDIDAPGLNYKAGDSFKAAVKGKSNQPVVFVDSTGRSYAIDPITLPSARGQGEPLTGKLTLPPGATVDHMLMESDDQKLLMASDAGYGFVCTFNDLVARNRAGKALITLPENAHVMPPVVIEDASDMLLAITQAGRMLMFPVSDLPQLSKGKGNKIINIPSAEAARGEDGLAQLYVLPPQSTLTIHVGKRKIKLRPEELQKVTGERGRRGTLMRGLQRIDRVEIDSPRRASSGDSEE
T4 sequence (P0AES4 whole entry): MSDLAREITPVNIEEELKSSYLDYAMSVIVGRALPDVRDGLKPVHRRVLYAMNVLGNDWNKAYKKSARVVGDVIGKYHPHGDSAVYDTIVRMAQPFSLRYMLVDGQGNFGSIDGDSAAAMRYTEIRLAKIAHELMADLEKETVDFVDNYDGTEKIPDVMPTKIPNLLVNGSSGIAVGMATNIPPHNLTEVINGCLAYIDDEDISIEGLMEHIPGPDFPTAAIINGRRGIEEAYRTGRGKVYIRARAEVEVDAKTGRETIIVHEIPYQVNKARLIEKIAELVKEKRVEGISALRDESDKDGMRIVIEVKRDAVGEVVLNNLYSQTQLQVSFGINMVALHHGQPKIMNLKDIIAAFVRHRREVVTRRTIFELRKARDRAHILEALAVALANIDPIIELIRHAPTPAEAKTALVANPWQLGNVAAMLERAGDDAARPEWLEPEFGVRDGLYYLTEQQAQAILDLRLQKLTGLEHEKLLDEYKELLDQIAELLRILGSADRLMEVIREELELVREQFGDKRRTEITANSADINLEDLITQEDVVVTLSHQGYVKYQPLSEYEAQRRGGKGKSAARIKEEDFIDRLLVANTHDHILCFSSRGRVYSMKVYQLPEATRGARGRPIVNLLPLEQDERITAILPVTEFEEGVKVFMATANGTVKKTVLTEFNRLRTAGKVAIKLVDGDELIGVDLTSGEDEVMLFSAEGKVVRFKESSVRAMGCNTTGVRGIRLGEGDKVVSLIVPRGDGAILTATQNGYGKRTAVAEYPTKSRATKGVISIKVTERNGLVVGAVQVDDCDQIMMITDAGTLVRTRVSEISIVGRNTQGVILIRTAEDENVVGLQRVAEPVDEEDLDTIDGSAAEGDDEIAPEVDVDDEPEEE
T3 sequence (P0C1U9 whole entry): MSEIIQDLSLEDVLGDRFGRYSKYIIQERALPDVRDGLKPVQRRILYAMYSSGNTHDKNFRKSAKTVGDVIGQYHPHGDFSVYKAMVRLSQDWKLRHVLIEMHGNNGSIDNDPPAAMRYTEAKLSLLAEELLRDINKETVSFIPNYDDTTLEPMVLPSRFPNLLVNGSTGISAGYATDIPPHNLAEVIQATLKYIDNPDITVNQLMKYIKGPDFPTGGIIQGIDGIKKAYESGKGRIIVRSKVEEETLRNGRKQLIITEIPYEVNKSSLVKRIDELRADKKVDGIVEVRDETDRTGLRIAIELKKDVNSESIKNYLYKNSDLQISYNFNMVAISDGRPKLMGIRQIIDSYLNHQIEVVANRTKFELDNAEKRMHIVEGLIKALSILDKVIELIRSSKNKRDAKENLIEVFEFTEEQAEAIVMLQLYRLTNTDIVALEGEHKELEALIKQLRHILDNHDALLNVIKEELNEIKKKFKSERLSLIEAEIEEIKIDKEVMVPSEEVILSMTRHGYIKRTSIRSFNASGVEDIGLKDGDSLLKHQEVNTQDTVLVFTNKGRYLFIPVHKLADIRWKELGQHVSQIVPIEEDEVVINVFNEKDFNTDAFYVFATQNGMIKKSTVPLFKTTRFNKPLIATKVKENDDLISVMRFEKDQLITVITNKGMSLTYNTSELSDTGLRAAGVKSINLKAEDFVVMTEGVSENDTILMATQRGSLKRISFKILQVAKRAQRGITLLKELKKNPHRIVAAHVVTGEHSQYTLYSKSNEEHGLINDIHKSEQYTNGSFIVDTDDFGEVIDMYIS
T3 sequence (P0C1S7 whole entry partner): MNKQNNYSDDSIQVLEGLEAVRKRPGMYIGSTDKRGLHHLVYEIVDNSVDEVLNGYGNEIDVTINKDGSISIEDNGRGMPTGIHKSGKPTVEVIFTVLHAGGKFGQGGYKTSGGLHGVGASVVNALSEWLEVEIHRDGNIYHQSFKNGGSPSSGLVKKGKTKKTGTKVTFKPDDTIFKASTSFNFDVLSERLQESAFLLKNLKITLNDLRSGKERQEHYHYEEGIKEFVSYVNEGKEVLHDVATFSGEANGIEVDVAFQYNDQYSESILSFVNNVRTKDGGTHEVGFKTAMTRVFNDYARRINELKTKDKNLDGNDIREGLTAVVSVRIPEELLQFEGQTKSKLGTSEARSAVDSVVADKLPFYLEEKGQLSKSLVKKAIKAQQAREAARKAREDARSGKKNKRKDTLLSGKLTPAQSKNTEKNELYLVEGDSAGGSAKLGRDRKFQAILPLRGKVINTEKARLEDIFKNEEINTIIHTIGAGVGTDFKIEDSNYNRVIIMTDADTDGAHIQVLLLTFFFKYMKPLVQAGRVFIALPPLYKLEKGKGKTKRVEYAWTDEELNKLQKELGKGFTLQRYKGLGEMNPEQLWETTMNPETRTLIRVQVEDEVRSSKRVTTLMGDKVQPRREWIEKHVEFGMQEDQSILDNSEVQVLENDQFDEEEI

Row | SMILES | IC50 (E. coli topoIV) [µM] | IC50 (S. aureus DNA gyrase) [µM] | IC50 (S. aureus topoIV) [µM] | MIC (E. coli (ATCC 25922); [2]) [µM] | MIC (E. coli (ATCC 25922); [3]) [µg/mL] | MIC (E. coli ESBL QA-11.3; [4]) [µM] | MIC (E. coli ESBL QA-11.3; [5]) [µg/mL] | MIC (E. coli N43 (CGSC# 5583); [6]) [µM] | MIC (E. coli N43 (CGSC# 5583); [7]) [µg/mL] | MIC (E. coli D22; [8]) [µM] | MIC (E. coli D22; D22, read-out: MIC E. coli D22) [µg/mL] | MIC (A. baumannii; [9]) [µM] | MIC (A. baumannii; [10]) [µg/mL] | MIC (K. pneumoniae; [11]) [µM] | MIC (K. pneumoniae; [12]) [µg/mL] | MIC (P. aeruginosa RDK 184; [13]) [µM] | IC50 at 72 h ([1]; HUVEC cells (ATCC CRL-1730)) [µM] | IC50 at 72 h ([1]; HepG2 cells (ATCC HB-8065)) [µM] | IC50 (E. coli DNA gyrase) [µM] | remaining activity at 100 µM (human topoisomerase IIα) [%] | also measured
1 | COc1ccc2nccc(OCC3CCC(NCc4ccc(N)cc4)CO3)c2n1 (stereo not drawn) [Compound 11, N-(4-Aminobenzyl)-6-(((6-methoxy-1,5-naphthyridin-4-yl)oxy)methyl)tetrahydro-2H-pyran-3-amine] | > 100 | > 100 | > 100 | > 328 | > 128 | > 328 | > 128 | > 328 | > 128 | > 328 | > 128 | > 328 | > 128 | > 328 | > 128 | > 328 | > 50 | > 50 | > 100 | 100 | MIC (P. aeruginosa RDK 184; [14]): > 128 µg/mL; MIC (E. faecalis RDK 057; [15]): > 328 µM; MIC (E. faecalis RDK 057; [16]): > 128 µg/mL; MIC (S. aureus (ATCC 29213); [17]): > 328 µM; MIC (S. aureus (ATCC 29213); [18]): > 128 µg/mL
2 | COc1ccc2nccc(CCN3CCC(NCc4ccc(N)cc4)CC3)c2n1 [Compound 9, N-(4-Aminobenzyl)-1-(2-(6-methoxy-1,5-naphthyridin-4-yl)ethyl)piperidin-4-amine] | 5.698 ± 0.014 | 1.38 ± 0.108 | > 100 |  |  |  |  |  | 64 |  |  |  |  |  |  |  | 34 ± 16.9 | 26.1 ± 9.52 | > 100 | 100 ± 1 | MIC (E. coli (ATCC 25922); Escherichia coli, ATCC25922, 20 h; Table S3; read-out: MIC (μM) E. coli (ATCC 25922)): > 328 µM; MIC (E. coli (ATCC 25922); Escherichia coli, ATCC25922; read-out: MIC E. coli (ATCC 25922)): > 128 µg/mL; MIC (E. coli ESBL QA-11.3; Escherichia coli, ESBLQA11.3, 20 h; Table S3; read-out: MIC (μM) E. coli ESBL QA:11.3): > 328 µM; MIC (E. coli ESBL QA-11.3; Escherichia coli, ESBLQA11.3; read-out: MIC E. coli ESBL QA-11.3): > 128 µg/mL; MIC (E. coli N43 (CGSC# 5583); read-out: MIC (μM) E. coli N43): 164 µM; MIC (E. coli D22; D22, 20 h, Table S3, lpxC mutation, read-out: MIC (μM) E. coli D22): > 328 µM; MIC (E. coli D22; D22, lpxC mutation that increases membrane permeability, read-out: MIC E. coli D22): > 128 µg/mL; MIC (A. baumannii; Acinetobacter baumannii, 20 h; Table S3; read-out: MIC (μM) A. baumannii): > 328 µM; MIC (A. baumannii; Acinetobacter baumannii; read-out: MIC A. baumannii): > 128 µg/mL; MIC (K. pneumoniae; Klebsiella pneumoniae, 20 h; Table S3; read-out: MIC (μM) K. pneumoniae): > 328 µM; MIC (K. pneumoniae; Klebsiella pneumoniae; read-out: MIC K. pneumoniae): > 128 µg/mL; MIC (P. aeruginosa RDK 184; Pseudomonas aeruginosa, RDK184, 20 h; Table S3; read-out: MIC (μM) P. aeruginosa RDK 184): > 328 µM; MIC (P. aeruginosa RDK 184; Pseudomonas aeruginosa, RDK184; read-out: MIC P. aeruginosa RDK 184): > 128 µg/mL; MIC (E. faecalis RDK 057; Enterococcus faecalis, RDK057; Table S3; read-out: MIC (μM) E. faecalis DRK 057): > 328 µM; MIC (E. faecalis RDK 057; Enterococcus faecalis, RDK057; read-out: MIC E. faecalis RDK 057): > 128 µg/mL; MIC (S. aureus (ATCC 29213); Staphylococcus aureus, ATCC29213, read-out: MIC (μM) S. aureus (ATCC 29213)): 164 µM; MIC (S. aureus (ATCC 29213); Staphylococcus aureus, ATCC29213; read-out: MIC S. aureus (ATCC 29213)): 64 µg/mL
3 | COc1ccc2nccc(OCC3CCC(NCc4ccc(N)cc4)CC3)c2n1 (stereo not drawn) [Compound 10, 4-(((4-(((6-methoxy-1,5-naphthyridin-4-yl)oxy)methyl)cyclohexyl)amino)methyl)aniline] | > 100 | > 100 | > 100 | > 328 | > 128 | > 328 | > 128 | > 328 | > 128 | > 328 | > 128 | > 328 | > 128 | > 328 | > 128 | > 328 | > 50 | > 50 | > 100 | 99 ± 1 | MIC (P. aeruginosa RDK 184; [14]): > 128 µg/mL; MIC (E. faecalis RDK 057; [15]): > 328 µM; MIC (E. faecalis RDK 057; [16]): > 128 µg/mL; MIC (S. aureus (ATCC 29213); [17]): > 328 µM; MIC (S. aureus (ATCC 29213); [18]): > 128 µg/mL
